Test results published in ChEMBL document CHEMBL2157963, “Synthesis and in vitro antitumour screening of 2-(β-D-xylofuranosyl)thiazole-4-carboxamide and two novel tiazofurin analogues with substituted tetrahydrofurodioxol moiety as a sugar mimic” (Bioorg Med Chem Lett, 2012).
Active and inactive are the calls of the source. The rule behind the calls is not given here.

Assays:
K562 [1] = assay: Induction of apoptosis in human K562 cells assessed as apoptotic cells at IC50 concentration after 72 hrs by AnnexinV staining-based flow cytometric analysis relative to tiazofurin; format: functional
K562 [2] = assay: Induction of apoptosis in human K562 cells at IC50 concentration after 24 hrs by AnnexinV staining-based flow cytometric analysis; format: functional, cell-based
HT-29 = assay: Cytotoxicity against human HT-29 cells; format: functional, cell-based
MCF7 = assay: Cytotoxicity against human MCF7 cells; format: functional, cell-based
MDA-MB-231 = assay: Cytotoxicity against human MDA-MB-231 cells; format: functional, cell-based
K562 [3] = assay: Cytotoxicity against human K562 cells after 72 hrs by SRB assay; format: functional, cell-based; settings: K562, 72 h
K562 [4] = assay: Cytotoxicity against human K562 cells after 72 hrs by DET assay; format: functional, cell-based; settings: K562, 72 h
HeLa [5] = assay: Cytotoxicity against human HeLa cells after 72 hrs by MTT assay; format: functional, cell-based
MRC5 = assay: Cytotoxicity against human MRC5 cells after 72 hrs by MTT assay; format: cell-based; settings: MRC5, 72 h
HeLa [6] = assay: Ratio of tiazofurin IC50 to compound IC50 for human HeLa cells; format: functional
Jurkat = assay: Cytotoxicity against human Jurkat cells after 72 hrs by MTT assay; format: functional, cell-based
Raji = assay: Cytotoxicity against human Raji cells after 72 hrs by MTT assay; format: functional, cell-based
K562 [7] = assay: Cytotoxicity against human K562 cells after 72 hrs by MTT assay; format: functional, cell-based; settings: K562, 72 h
HL-60 [8] = assay: Cytotoxicity against human HL60 cells after 72 hrs by MTT assay; format: functional, cell-based; settings: HL-60, 72 h
K562 [9] = assay: Ratio of tiazofurin IC50 to compound IC50 for human K562 cells; format: functional
HL-60 [10] = assay: Ratio of tiazofurin IC50 to compound IC50 for human HL60 cells; format: functional

Structure (SMILES)	fold change (FC) (K562 [1])	Activity (K562 [2])	Activity (HT-29)	Activity (MCF7)	Activity (MDA-MB-231)	IC50 (K562 [3]) [nM]	IC50 (K562 [4]) [nM]	IC50 (HeLa [5]) [nM]	IC50 (MRC5) [nM]	Ratio IC50 (HeLa [6])	IC50 (Jurkat) [nM]	IC50 (Raji) [nM]	IC50 (K562 [7]) [nM]	IC50 (HL-60 [8]) [nM]	Ratio IC50 (K562 [9])	IC50 (HT-29) [nM]	IC50 (MCF7) [nM]	IC50 (MDA-MB-231) [nM]	Ratio IC50 (HL-60 [10])
NC(=O)c1csc([C@@H]2O[C@H](CO)[C@H](O)[C@H]2O)n1	7	Active	inactive	inactive	inactive	416	100	80	> 100000	48	530	3110	150	130					
C[C@]1(c2nc(C(N)=O)cs2)O[C@H]2O[C@H](CO)[C@H](O)[C@H]2O1								640	> 100000		640	5610	20	340	100				
NC(=O)c1csc([C@@H]2O[C@H](CO)[C@@H](O)[C@H]2O)n1 [TIAZOFURIN]								3820	360		40	5280	2090	190		260	260	260	
C[C@@]1(c2nc(C(N)=O)cs2)O[C@H]2O[C@H](CO)[C@H](O)[C@H]2O1								60	> 100000	64	590	2640	100	50					4
